Drawing on US12448389B2, “BRM targeting compounds and associated methods of use” (Prelude Therapeutics Incorporated, priority 2020, dated 2025), this text covers DC50 and Dmax for 15 molecules.

Some results are limits rather than exact numbers.

Assay [1] concerns the target T1, SMARCA4-HiBiT (Homo sapiens, UniProt P51532).
T1 construct: SMARCA4-HiBiT knock-in Hela monoclonal cell (CS3023226); host or cells: HeLa monoclonal knock-in line (CRISPR HiBiT knock-in at the endogenous locus, heterozygous)
Nature of the assay: SMARCA4 HiBiT degradation assay in HeLa cells. It counts as cell-based. Conditions: 18 hours incubation; for DC50: read-out: HeLa-HiBit-SM4 DC50; for Dmax: HeLa, read-out: HeLa-HiBit-SM4 Dmax (%). In outline: (§1)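 HeLa monoclonal lines with heterozygous HiBiT knock-in were seeded at 2500 cells/well in EMEM with 10% FBS and treated with compound for 18 h at 37 °C. Remaining tagged protein was measured by Nano-Glo HiBiT lytic luminescence after 30–60 min at RT, and values came from curve fitting.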

The target in assay [2] is T2, SMARCA2-HiBiT (Homo sapiens, UniProt P51531).
T2 construct: SMARCA2-HiBiT knock-in Hela monoclonal cell (CS302366); host or cells: HeLa monoclonal knock-in line (CRISPR HiBiT knock-in at the endogenous locus, heterozygous)
The assay can be described thus: SMARCA2 HiBiT degradation assay in HeLa cells. It counts as cell-based. The following applies: 18 hours incubation; for DC50: read-out: HeLa_HiBit-SM2 DC50; for Dmax: HeLa, read-out: HeLa-HiBit-SM2 Dmax (%). In outline: as §1

T1 sequence (P51532 whole entry): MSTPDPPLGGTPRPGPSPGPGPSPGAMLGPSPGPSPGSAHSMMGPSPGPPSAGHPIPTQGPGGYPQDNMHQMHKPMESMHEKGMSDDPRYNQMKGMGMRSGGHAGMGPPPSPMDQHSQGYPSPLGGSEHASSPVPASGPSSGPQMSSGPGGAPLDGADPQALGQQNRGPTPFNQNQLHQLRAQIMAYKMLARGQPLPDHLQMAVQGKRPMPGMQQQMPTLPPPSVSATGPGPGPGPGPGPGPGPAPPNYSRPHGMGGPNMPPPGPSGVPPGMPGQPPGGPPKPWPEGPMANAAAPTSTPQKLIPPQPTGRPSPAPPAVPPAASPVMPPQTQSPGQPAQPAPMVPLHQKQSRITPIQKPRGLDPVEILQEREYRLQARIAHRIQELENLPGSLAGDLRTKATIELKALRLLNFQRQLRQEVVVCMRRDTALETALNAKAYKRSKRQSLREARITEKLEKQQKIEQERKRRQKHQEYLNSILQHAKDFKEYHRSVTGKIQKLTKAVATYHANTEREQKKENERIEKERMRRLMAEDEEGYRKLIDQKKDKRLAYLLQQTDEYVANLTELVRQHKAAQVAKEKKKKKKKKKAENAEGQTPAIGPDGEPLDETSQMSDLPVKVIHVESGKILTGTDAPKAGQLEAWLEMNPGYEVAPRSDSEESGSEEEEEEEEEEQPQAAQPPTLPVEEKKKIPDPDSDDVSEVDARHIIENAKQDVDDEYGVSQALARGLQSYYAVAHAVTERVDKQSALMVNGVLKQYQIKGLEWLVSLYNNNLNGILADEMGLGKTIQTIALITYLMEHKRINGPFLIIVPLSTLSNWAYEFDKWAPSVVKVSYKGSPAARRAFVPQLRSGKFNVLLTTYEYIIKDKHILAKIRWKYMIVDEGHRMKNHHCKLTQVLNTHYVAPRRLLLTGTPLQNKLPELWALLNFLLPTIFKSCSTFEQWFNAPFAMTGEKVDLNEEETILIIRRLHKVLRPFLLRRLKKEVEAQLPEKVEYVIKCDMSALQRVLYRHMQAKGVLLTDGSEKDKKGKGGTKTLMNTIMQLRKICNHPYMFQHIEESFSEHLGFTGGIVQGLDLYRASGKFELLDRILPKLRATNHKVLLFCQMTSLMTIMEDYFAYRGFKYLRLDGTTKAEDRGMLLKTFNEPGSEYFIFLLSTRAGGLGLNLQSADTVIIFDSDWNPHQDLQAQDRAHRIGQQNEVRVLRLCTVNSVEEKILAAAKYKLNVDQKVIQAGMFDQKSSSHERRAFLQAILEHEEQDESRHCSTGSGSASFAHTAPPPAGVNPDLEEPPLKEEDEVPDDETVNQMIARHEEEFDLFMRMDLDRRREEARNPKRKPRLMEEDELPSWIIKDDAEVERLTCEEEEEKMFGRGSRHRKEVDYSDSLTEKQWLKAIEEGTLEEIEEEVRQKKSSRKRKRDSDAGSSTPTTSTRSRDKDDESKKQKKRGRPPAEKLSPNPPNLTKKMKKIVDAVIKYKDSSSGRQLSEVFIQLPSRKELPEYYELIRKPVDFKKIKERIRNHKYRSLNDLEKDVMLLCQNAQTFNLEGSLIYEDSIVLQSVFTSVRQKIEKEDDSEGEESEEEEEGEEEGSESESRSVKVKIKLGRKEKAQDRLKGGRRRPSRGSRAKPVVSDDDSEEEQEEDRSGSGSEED
T2 sequence (P51531 whole entry): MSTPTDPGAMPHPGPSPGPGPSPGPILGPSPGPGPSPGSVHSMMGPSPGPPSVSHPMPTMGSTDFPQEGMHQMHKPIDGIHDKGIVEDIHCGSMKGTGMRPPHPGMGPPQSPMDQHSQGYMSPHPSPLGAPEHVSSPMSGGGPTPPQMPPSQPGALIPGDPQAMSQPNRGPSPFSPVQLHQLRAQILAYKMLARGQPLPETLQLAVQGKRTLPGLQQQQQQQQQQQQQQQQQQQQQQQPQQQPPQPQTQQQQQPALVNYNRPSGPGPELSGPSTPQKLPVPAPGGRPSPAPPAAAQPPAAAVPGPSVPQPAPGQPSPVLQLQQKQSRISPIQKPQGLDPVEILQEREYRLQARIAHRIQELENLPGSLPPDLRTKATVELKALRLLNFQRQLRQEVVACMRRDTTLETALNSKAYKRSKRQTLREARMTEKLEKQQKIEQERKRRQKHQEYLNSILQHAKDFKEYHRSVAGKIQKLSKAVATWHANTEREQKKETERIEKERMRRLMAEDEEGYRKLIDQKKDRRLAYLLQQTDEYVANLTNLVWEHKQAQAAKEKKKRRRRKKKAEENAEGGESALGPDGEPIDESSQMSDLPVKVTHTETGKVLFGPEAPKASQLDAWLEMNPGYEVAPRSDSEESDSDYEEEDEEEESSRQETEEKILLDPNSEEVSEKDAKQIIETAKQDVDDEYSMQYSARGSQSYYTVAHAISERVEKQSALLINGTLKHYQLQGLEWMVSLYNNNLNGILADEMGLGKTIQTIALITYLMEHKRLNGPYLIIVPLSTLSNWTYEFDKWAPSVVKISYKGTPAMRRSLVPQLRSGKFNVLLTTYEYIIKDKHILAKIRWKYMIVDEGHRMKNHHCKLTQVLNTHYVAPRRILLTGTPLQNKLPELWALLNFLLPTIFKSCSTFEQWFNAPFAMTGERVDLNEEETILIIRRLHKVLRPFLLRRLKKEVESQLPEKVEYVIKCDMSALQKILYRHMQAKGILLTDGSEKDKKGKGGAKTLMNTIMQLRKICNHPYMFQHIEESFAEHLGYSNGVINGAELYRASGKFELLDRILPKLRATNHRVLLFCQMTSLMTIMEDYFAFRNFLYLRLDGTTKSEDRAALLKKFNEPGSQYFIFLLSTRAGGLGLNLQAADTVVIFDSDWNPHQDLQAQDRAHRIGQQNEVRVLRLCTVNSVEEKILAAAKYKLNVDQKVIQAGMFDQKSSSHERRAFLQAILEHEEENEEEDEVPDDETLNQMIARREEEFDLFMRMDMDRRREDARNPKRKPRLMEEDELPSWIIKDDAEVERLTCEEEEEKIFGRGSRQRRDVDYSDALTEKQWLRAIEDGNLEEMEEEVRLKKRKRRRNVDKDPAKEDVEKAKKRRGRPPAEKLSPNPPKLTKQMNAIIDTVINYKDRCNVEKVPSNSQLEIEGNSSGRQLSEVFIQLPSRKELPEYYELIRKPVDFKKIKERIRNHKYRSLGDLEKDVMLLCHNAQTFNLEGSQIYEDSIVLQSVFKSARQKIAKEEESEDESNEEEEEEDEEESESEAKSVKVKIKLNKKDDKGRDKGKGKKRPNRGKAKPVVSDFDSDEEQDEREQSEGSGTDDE

As to `O=C1CCC(N2Cc3cc(N4CCC(CN5CCC(CN6CCN7c8cc(-c9ccccc9O)nnc8NC[C@H]7C6)CC5)CC4)ccc3C2=O)C(=O)N1` (stereo partly drawn) [Example 231, 3-(5-(4-((4-(((S)-2-(2-hydroxyphenyl)-5,6,6a,7,9,10-hexahydro-8H-pyrazino[1′,2′:4,5]pyrazino[2,3-c]pyridazin-8-yl)methyl)piperidin-1-yl)methyl)piperidin-1-yl)-1-oxoisoindolin-2-yl)piperidine-2,6-dione], in assay [1], the DC50 (in general, the midpoint of the concentration-degradation curve) is below 10 nM and the Dmax – broadly, the greatest extent of degradation seen – is above 85%. Further, in assay [2], the 50% degradation concentration (DC50) was below 10 nM and the Dmax was above 85%.

As for `O=C1CCC(N2Cc3ccc(N4CCC(CN5C[C@@H]6[C@H](C5)[C@H]6CN5CCN6c7cc(-c8ccccc8O)nnc7NC[C@H]6C5)CC4)cc3C2=O)C(=O)N1` (stereo partly drawn) [Example 232, 3-(6-(4-(((1R,5S,6r)-6-(((S)-2-(2-hydroxyphenyl)-5,6,6a,7,9,10-hexahydro-8H-pyrazino[1′,2′:4,5]pyrazino[2,3-c]pyridazin-8-yl)methyl)-3-azabicyclo[3.1.0]hexan-3-yl)methyl)piperidin-1-yl)-1-oxoisoindolin-2-yl)piperidine-2,6-dione], the DC50 in assay [1] and in assay [2] was below 10 nM throughout. Besides, the Dmax in assay [1] and in assay [2] was above 85% throughout.

Consider `O=C1CCC(N2Cc3ccc(N4CCC(CN5CCC(F)(CN6CCN7c8cc(-c9ccccc9O)nnc8NC[C@H]7C6)CC5)CC4)cc3C2=O)C(=O)N1` (stereo partly drawn) [Example 233, 3-(6-(4-((4-fluoro-4-(((S)-2-(2-hydroxyphenyl)-5,6,6a,7,9,10-hexahydro-8H-pyrazino[1′,2′:4,5]pyrazino[2,3-c]pyridazin-8-yl)methyl)piperidin-1-yl)methyl)piperidin-1-yl)-1-oxoisoindolin-2-yl)piperidine-2,6-dione], for which, in assay [1], the DC50 was below 10 nM and the Dmax is above 85%. Further, in assay [2], the DC50 is below 10 nM and the Dmax is above 85%.

On to `O=C1CCC(N2Cc3cc(N4CCC(CN5CCC(CN6CCN7c8cc(-c9ccccc9O)nnc8NC[C@H]7C6)CC5)CC4)c(F)cc3C2=O)C(=O)N1` (stereo partly drawn) [Example 234, 3-(6-fluoro-5-(4-((4-(((S)-2-(2-hydroxyphenyl)-5,6,6a,7,9,1O-hexahydro-8H-pyrazino[1′,2′:4,5]pyrazino[2,3-c]pyridazin-8-yl)methyl)piperidin-1-yl)methyl)piperidin-1-yl)-1-oxoisoindolin-2-yl)piperidine-2,6-dione], for which the DC50 in assay [1] and in assay [2] was below 10 nM in each case. In addition, the greatest degradation seen (Dmax) in assay [1] and in assay [2] was above 85% throughout.

With `O=C1CCC(N2Cc3ccc(N4CCC(CN5CCC(CN6CCN7c8cc(-c9ccccc9O)nnc8NC[C@H]7C6)CC5CO)CC4)cc3C2=O)C(=O)N1` (stereo partly drawn) [Example 235, 3-(6-(4-((2-(hydroxymethyl)-4-(((S)-2-(2-hydroxyphenyl)-5,6,6a,7,9,10-hexahydro-8H-pyrazino[1′,2′:4,5]pyrazino[2,3-c]pyridazin-8-yl)methyl)piperidin-1-yl)methyl)piperidin-1-yl)-1-oxoisoindolin-2-yl)piperidine-2,6-dione], in assay [1], the DC50 was below 10 nM and the Dmax is above 85%. Also, in assay [2], the 50% degradation concentration (DC50) is below 10 nM and the Dmax is above 85%.

As for `O=C1CCC(N2C(=O)c3ccc(N4CCC(CN5CCC(CN6CCN7c8cc(-c9ccccc9O)nnc8NC[C@H]7C6)CC5CO)CC4)cc3C2=O)C(=O)N1` (stereo partly drawn) [Example 236, 2-(2,6-dioxopiperidin-3-yl)-5-(4-((2-(hydroxymethyl)-4-(((S)-2-(2-hydroxyphenyl)-5,6,6a,7,9,10-hexahydro-8H-pyrazino[1′,2′:4,5]pyrazino[2,3-c]pyridazin-8-yl)methyl)piperidin-1-yl)methyl)piperidin-1-yl) isoindoline-1,3-dione], the DC50 in assay [1] and in assay [2] was below 10 nM in each case. Moreover, the Dmax in assay [1] is 75 to 85%; in assay [2], above 85%.

Turning to `O=C1CCC(N2Cc3cc(OCCCN4CCC(N5CCN6c7cc(-c8ccccc8O)nnc7NC[C@H]6C5)CC4)ccc3C2=O)C(=O)N1` (stereo partly drawn) [Example 237, 3-(5-(3-(4-((S)-2-(2-hydroxyphenyl)-5,6,6a,7,9,10-hexahydro-8H-pyrazino[1′,2′:4,5]pyrazino[2,3-c]pyridazin-8-yl)piperidin-1-yl)propoxy)-1-oxoisoindolin-2-yl)piperidine-2,6-dione], in assay [1], the DC50 is below 10 nM and the Dmax lay within 75 to 85%. Moreover, in assay [2], the 50% degradation concentration (DC50) was below 10 nM and the Dmax was above 85%.

As to `O=C1CCC(N2Cc3cc(OCCN4CCC(N5CCN6c7cc(-c8ccccc8O)nnc7NC[C@H]6C5)CC4)ccc3C2=O)C(=O)N1` (stereo partly drawn) [Example 238], the DC50 in assay [1] and in assay [2] was below 10 nM in each case. Further, the Dmax was 75 to 85% in assay [1] and above 85% in assay [2].

With `O=C1CC[C@@H](N2Cc3cc(OCCN4CCC(N5CCN6c7cc(-c8ccccc8O)nnc7NC[C@H]6C5)CC4)ccc3C2=O)C(=O)N1` [Example 239, (R)-3-(5-(2-(4-((S)-2-(2-hydroxyphenyl)-5,6,6a,7,9,10-hexahydro-8H-pyrazino[1′,2′:4,5]pyrazino[2,3-c]pyridazin-8-yl)piperidin-1-yl)ethoxy)-1-oxoisoindolin-2-yl)piperidine-2,6-dione], the DC50 in assay [1] and in assay [2] was below 10 nM in each case. Moreover, the Dmax was 50 to 75% in assay [1] and above 85% in assay [2].

Turning to `O=C1CCC(N2C(=O)c3ccc(Nc4ccc(N5CCC(N6CCN7c8cc(-c9ccccc9O)nnc8NC[C@H]7C6)CC5)cc4)cc3C2=O)C(=O)N1` (stereo partly drawn) [Example 240, 2-(2,6-dioxopiperidin-3-yl)-5-((4-(4-((S)-2-(2-hydroxyphenyl)-5,6,6a,7,9,10-hexahydro-8H-pyrazino[1′,2′:4,5]pyrazino[2,3-c]pyridazin-8-yl)piperidin-1-yl)phenyl)amino) isoindoline-1,3-dione], in assay [1], the DC50 was below 10 nM and the Dmax was 75 to 85%. For the same molecule, in assay [2], the DC50 was below 10 nM and the Dmax fell in the range of 75 to 85%.

Regarding `O=C1CCC(N2C(=O)c3ccc(Oc4ccc(N5CCC(N6CCN7c8cc(-c9ccccc9O)nnc8NC[C@H]7C6)CC5)cc4)cc3C2=O)C(=O)N1` (stereo partly drawn) [Example 241, 2-(2,6-dioxopiperidin-3-yl)-5-(4-(4-((S)-2-(2-hydroxyphenyl)-5,6,6a,7,9,10-hexahydro-8H-pyrazino[1′,2′:4,5]pyrazino[2,3-c]pyridazin-8-yl)piperidin-1-yl)phenoxy)isoindoline-1,3-dione], in assay [1], the DC50 lay in the range of 10 to 100 nM and the maximal degradation (Dmax) fell in the range of 75 to 85%. In assay [2], the DC50 is below 10 nM and the Dmax lay within 50 to 75%.

On to `O=C1CCC(N2C(=O)c3ccc(NCCN4CCC(N5CCN6c7cc(-c8cc(F)ccc8O)nnc7NC[C@H]6C5)CC4)cc3C2=O)C(=O)N1` (stereo partly drawn) [Example 242, 2-(2,6-dioxopiperidin-3-yl)-5-((2-(4-((S)-2-(5-fluoro-2-hydroxyphenyl)-5,6,6a,7,9,10-hexahydro-8H-pyrazino[1′,2′:4,5]pyrazino[2,3-c]pyridazin-8-yl)piperidin-1-yl)ethyl)amino)isoindoline-1,3-dione], for which the DC50 in assay [1] and in assay [2] was below 10 nM in each case. The Dmax in assay [1] and in assay [2] was above 85% each time.

With `O=C1CCC(N2C(=O)c3ccc(C4CCN(C5CCN(CCN6CCN7c8cc(-c9ccccc9O)nnc8NC[C@H]7C6)C5)CC4)cc3C2=O)C(=O)N1` (stereo partly drawn) [Example 243, 2-(2,6-dioxopiperidin-3-yl)-5-(1-(1-(2-((S)-2-(2-hydroxyphenyl)-5,6,6a,7,9,10-hexahydro-8H-pyrazino[1′,2′:4,5]pyrazino[2,3-c]pyridazin-8-yl)ethyl)pyrrolidin-3-yl)piperidin-4-yl)isoindoline-1,3-dione], the DC50 in assay [1] and in assay [2] was below 10 nM throughout. Also, the Dmax in assay [1] and in assay [2] was above 85% each time.

On to `O=C1CCC(N2C(=O)c3ccc(Nc4cccc(N5CCC(N6CCN7c8cc(-c9ccccc9O)nnc8NC[C@H]7C6)CC5)c4)cc3C2=O)C(=O)N1` (stereo partly drawn) [Example 244, 2-(2,6-dioxopiperidin-3-yl)-5-((3-(4-((S)-2-(2-hydroxyphenyl)-5,6,6a,7,9,10-hexahydro-8H-pyrazino[1′,2′:4,5]pyrazino[2,3-c]pyridazin-8-yl)piperidin-1-yl)phenyl)amino)isoindoline-1,3-dione], for which, in assay [1], the DC50 fell in the range of 10 to 100 nM and the Dmax lay within 75 to 85%. Also, in assay [2], the DC50 was below 10 nM and the Dmax lay in the range of 75 to 85%.

As for `O=C1CCC(N2C(=O)c3ccc(Nc4cnn(CCN5CCC(N6CCN7c8cc(-c9ccccc9O)nnc8NC[C@H]7C6)CC5)c4)cc3C2=O)C(=O)N1` (stereo partly drawn) [Example 245, 2-(2,6-dioxopiperidin-3-yl)-5-((1-(2-(4-((S)-2-(2-hydroxyphenyl)-5,6,6a,7,9,10-hexahydro-8H-pyrazino[1′,2′:4,5]pyrazino[2,3-c]pyridazin-8-yl)piperidin-1-yl)ethyl)-1H-pyrazol-4-yl)amino)isoindoline-1,3-dione], in assay [1], the DC50 is 10 to 100 nM and the Dmax lay within 50 to 75%. In assay [2], the DC50 is below 10 nM and the Dmax fell in the range of 50 to 75%.
